Our source for the IC50 values is US10889616B2, “Cytotoxic tubulysin compounds for conjugation” (priority 2014, dated 2021).

Starred links: 1 amine or outer side, 2 acyl side, 3 side chain; linkers in the order of their positions; H or OH if unused. Non-standard residues stand in square brackets, D forms with d. Residues, ends and D or L forms follow the SMILES beside them. *: point of attachment. NPrTuv(OPr) = CCCO[C@H](C[C@H](C(C)C)N(CCC)[*:1])c1nc(C(=O)[*:2])cs1; Hexanoyl(6-maleimido) = O=C1C=CC(=O)N1CCCCCC(=O)*; X1 = C[C@@H](C[C@H](Cc1ccccc1)N*)C(=O)O; PABC = O=C(OCc1ccc(N[*:1])cc1)[*:2]; NMeI = CC[C@H](C)[C@H](NC)C(=O)O; Cit = NC(=O)NCCC[C@H](N)C(=O)O

Holding throughout (assay type): cell-based
For one assay, the system named is HEK293. Nature of the assay: cytotoxic activity, IC50 against HEK293 cells. The conditions noted are these: Homo sapiens.
The test system of a further assay is MDA-MB-468. Nature of the assay: cytotoxic activity, IC50 against MDA-MB-468 cells. Conditions: Homo sapiens.
The test system of the next assay is SK-N-MC. Put plainly: cytotoxic activity, IC50 against SK-N-MC cells. Conditions: Homo sapiens.
The subject of another assay is BT474. Nature of the assay: cytotoxic activity, IC50 against BT474 cells. Conditions: Homo sapiens; BT474 / BT-474 cells.
In a further assay the test system is HT1080. Put plainly: cytotoxic activity, IC50 against HT1080 cells. Conditions: Homo sapiens, HT-1080.
The next assay deals with SKBR3. Put plainly: cytotoxic activity, IC50 against SKBR3 cells. The conditions noted are these: Homo sapiens, SK-BR-3.
The test system of the next assay is MCF7. Put plainly: cytotoxic activity, IC50 against MCF7 cells. Conditions: Homo sapiens; MCF7 / MCF-7 cells.
The subject of a further assay is HT29. Nature of the assay: cytotoxic activity, IC50 against HT29 cells. The conditions noted are these: Homo sapiens; HT29 / HT-29 cells.
Another assay concerns T47D. Nature of the assay: cytotoxic activity, IC50 against T47D cells. Conditions: Homo sapiens; T47D / T-47D cells.
A short description of assay [1]: IC50 as ADC with Herceptin and DAR 2. Conditions: compound conjugated to Herceptin, DAR 2; cell line not given.
The test system of a further assay is NCl-H1299. Nature of the assay: cytotoxic activity, IC50 against NCl-H1299 cells.
The test system of a further assay is A2780. Nature of the assay: cytotoxic activity, IC50 against A2780 cells. Conditions: Homo sapiens.

As a reminder, the IC50 is the concentration that gives 50% inhibition. In the case of `CCCO[C@H](C[C@H](C(C)C)N(CCC)C(=O)[C@@H](NC(=O)[C@H]1CCCCN1C)[C@@H](C)CC)c1nc(C(=O)N[C@@H](Cc2ccc(OCCNC)cc2)C[C@H](C)C(=O)O)cs1` [TAM365], the IC50 in the assay with HEK293 was found to be 0.99 nM; in the assay with MDA-MB-468, 3.41 nM; with SK-N-MC it was 0.92 nM.
As for `CCCO[C@H](C[C@H](C(C)C)N(CCC)C(=O)[C@@H](NC(=O)[C@H]([C@@H](C)CC)N(C)C)[C@@H](C)CC)c1nc(C(=O)N[C@@H](Cc2ccccc2)C[C@H](C)C(=O)O)cs1` [TAM522], the IC50 is 0.98 nM in the assay with BT474, 2 nM in the assay on MDA-MB-468 and 1.54 nM in the assay on SK-N-MC.
Take `CCCO[C@H](C[C@H](C(C)C)N(CCC)C(=O)[C@@H](NC(=O)[C@H]([C@@H](C)CC)N(C)C(=O)OCc1ccc(NC(=O)[C@H](CCCNC(N)=O)NC(=O)[C@@H](NC(=O)CCCCCN2C(=O)C=CC2=O)C(C)C)cc1)[C@@H](C)CC)c1nc(C(=O)N[C@@H](Cc2ccccc2)C[C@H](C)C(=O)O)cs1` [TAM551] ({Hexanoyl(6-maleimido)}-V[Cit][PABC][NMeI]I[NPrTuv(OPr)]-X1): in the assay with HT1080, 90 nM corresponded to half-maximal inhibition (IC50).
Consider `CCCO[C@H](C[C@H](C(C)C)N(CCC)C(=O)[C@@H](NC(=O)[C@H]1CCCCN1C)[C@@H](C)CC)c1nc(C(=O)N[C@@H](Cc2ccc(O)cc2)C[C@H](C)C(=O)NNC(=O)OCCOCCOCCN)cs1` [TAM375], for which the IC50 in the assay on HEK293 amounted to 34.6 nM; in the assay on MDA-MB-468, 25.8 nM; with SKBR3 it was 18.8 nM.
Take `CCCO[C@H](C[C@H](C(C)C)N(CCC)C(=O)[C@@H](NC(=O)[C@@H](NC)[C@@H](C)CC)[C@@H](C)CC)c1nc(C(=O)N[C@@H](Cc2ccccc2)C[C@H](C)C(=O)O)cs1` [TAM491]: the IC50 in the assay with BT474 is 1.84 nM; in the assay with MDA-MB-468, 2.68 nM; with MCF7, 1.77 nM; in the assay on SK-N-MC it was 4.57 nM.
For `CCCO[C@H](C[C@H](C(C)C)N(CCC)C(=O)[C@@H](NC(=O)[C@H](CC(C)C)NC)[C@@H](C)CC)c1nc(C(=O)N[C@@H](Cc2ccccc2)C[C@H](C)C(=O)OC)cs1` [TAM496] the same measures were 95.2 nM, 214 nM, 103 nM and 300 nM.
For the compound `CCCO[C@H](C[C@H](C(C)C)N(CCC)C(=O)[C@@H](NC(=O)[C@H]1CCCCN1)[C@@H](C)CC)c1nc(C(=O)N[C@@H](Cc2ccc(O)cc2)C[C@H](C)C(=O)O)cs1` [TAM334], the figures for the IC50 in the assay on BT474, in the assay with HT29 and in the assay on SKBR3 were 5.2 nM, 12.3 nM and 5.4 nM, respectively.
Regarding `CCCO[C@H](C[C@H](C(C)C)N(CCC)C(=O)[C@@H](NC(=O)[C@H]1CCCCN1C)[C@@H](C)CC)c1nc(C(=O)N[C@@H](Cc2ccc(OCCCCN)cc2)C[C@H](C)C(=O)O)cs1` [TAM486], the IC50 in the assay on BT474 worked out at 50.9 nM; in the assay with MDA-MB-468 it was 81.5 nM; with MCF7, 57.5 nM; with T47D it was 142 nM; in the assay with SK-N-MC it was 48.5 nM.
For the compound `CCCO[C@H](C[C@H](C(C)C)N(CCC)C(=O)[C@@H](NC(=O)[C@H]([C@@H](C)CC)N(C)C)[C@@H](C)CC)c1nc(C(=O)N[C@@H](Cc2ccccc2)C[C@H](C)C(=O)OC)cs1` [TAM521], the IC50 in the assay with BT474 was 4.07 nM; in the assay on MDA-MB-468, 20 nM; in the assay with MCF7, 6.74 nM; with SK-N-MC, 15.3 nM.
In the case of `CCCO[C@H](C[C@H](C(C)C)N(CCC)C(=O)[C@@H](NC(=O)[C@@H](NC)[C@@H](C)CC)[C@@H](C)CC)c1nc(C(=O)N[C@@H](Cc2ccc(O)cc2)C[C@H](C)C(=O)O)cs1` [TAM599], the IC50 in the assay with MDA-MB-468 was determined as 0.64 nM; in the assay on MCF7, 0.65 nM; in the assay with T47D it was 1.22 nM; in the assay on SK-N-MC, 0.77 nM.
`CCCO[C@H](C[C@H](C(C)C)N(CCC)C(=O)[C@@H](NC(=O)[C@@H](NC)[C@@H](C)CC)[C@@H](C)CC)c1nc(C(=O)N[C@@H](Cc2ccc(O)cc2)C[C@H](C)C(=O)OC)cs1` [TAM598]: the concentration for half-maximal inhibition (IC50) came to 5.15 nM with MDA-MB-468, 4.39 nM in the assay with MCF7, 8.17 nM in the assay with T47D and 6.74 nM with SK-N-MC.
With `CCCO[C@H](C[C@H](C(C)C)N(CCC)C(=O)[C@@H](NC(=O)[C@H]1CCCCN1C)[C@@H](C)CC)c1nc(C(=O)N[C@@H](Cc2ccc(O)cc2)C[C@H](C)C(=O)NNC(=O)OCCOCCOCCOCCNC(=O)CCCCCN2C(=O)C=CC2=O)cs1` [TAM552], half-maximal inhibition with HT1080 (IC50) was put at 10 nM.
With `CCCO[C@H](C[C@H](C(C)C)N(CCC)C(=O)[C@@H](NC(=O)[C@H]1CCCCN1C)[C@@H](C)CC)c1nc(C(=O)N[C@@H](Cc2ccc(O)cc2)C[C@H](C)C(=O)NNC(=O)OCCOCCN=[N+]=[N-])cs1` [TAM426], the figures for the IC50 in the assay on MDA-MB-468, in the assay on MCF7 and with T47D were 1.71 nM, 1.33 nM and 2 nM, respectively.
Turning to `CCCO[C@H](C[C@H](C(C)C)N(CCC)C(=O)[C@@H](NC(=O)[C@H](CC(C)C)NC)[C@@H](C)CC)c1nc(C(=O)N[C@@H](Cc2ccccc2)C[C@H](C)C(=O)O)cs1` [TAM497], the IC50 was 50 nM in the assay with BT474, 85.6 nM in the assay on MDA-MB-468, 64.3 nM with MCF7 and 83.3 nM in the assay on SK-N-MC.
As for `CCCO[C@H](C[C@H](C(C)C)N(CCC)C(=O)[C@@H](NC(=O)[C@H]1CCCCN1C)[C@@H](C)CC)c1nc(C(=O)N[C@@H](Cc2ccc(O)cc2)C[C@H](C)C(=O)NNC(=O)OCCOCCN)cs1` [TAM428], the IC50 in assay [1] is 0.219 nM; with MDA-MB-468 it was 16.8 nM; with MCF7 it was 20.6 nM; with T47D, 32 nM.
Consider `CCCO[C@H](C[C@H](C(C)C)N(CCC)C(=O)[C@@H](NC(=O)[C@H](NC)[C@@H](C)CC)[C@@H](C)CC)c1nc(C(=O)N[C@@H](Cc2ccc(O)cc2)C[C@H](C)C(=O)OC)cs1` [TAM609], for which the 50% inhibitory concentration (IC50) with BT474 stood at 0.5 nM; in the assay on MDA-MB-468 it was 3.32 nM; with MCF7, 2.17 nM; in the assay on SK-N-MC it was 2.12 nM.
For `CCCO[C@H](C[C@H](C(C)C)N(CCO)C(=O)[C@@H](NC(=O)[C@H]1CCCCN1C)[C@@H](C)CC)c1nc(C(=O)N[C@@H](Cc2ccc(O)cc2)C[C@H](C)C(=O)O)cs1` [TAM608] the same measures were 1.69 nM, 2.24 nM, 4.06 nM and 1.54 nM.
Take `CCCO[C@H](C[C@H](C(C)C)N(CCC)C(=O)[C@@H](NC(=O)[C@H]1CCCCN1C)[C@@H](C)CC)c1nc(C(=O)N[C@@H](Cc2ccccc2)C[C@H](C)C(=O)NN)cs1` [TPM320]: the figures for the IC50 with BT474 and in the assay on SK-N-MC were 11 nM and 16 nM, respectively.
Consider `CC[C@H](C)[C@H](NC(=O)[C@H]1CCCCN1C)C(=O)N(COC(=O)CC(C)C)[C@H](C[C@@H](OC(C)=O)c1nc(C(=O)N[C@@H](Cc2ccc(O)cc2)C[C@H](C)C(=O)NCCS)cs1)C(C)C` [TAM674], for which the IC50 turned out to be 19 nM with NCl-H1299, 4.4 nM in the assay with HT29 and 8.7 nM in the assay on A2780.
For `CCCO[C@H](C[C@H](C(C)C)N(CCC)C(=O)[C@@H](NC(=O)[C@H]1CCCCN1C)[C@@H](C)CC)c1nc(C(=O)N[C@@H](Cc2ccc(OC(=O)NCCOCCOCCN)cc2)C[C@H](C)C(=O)O)cs1` [TAM371], the values for the IC50 in the assay on HEK293, in the assay with MDA-MB-468 and with SK-N-MC were 0.1 nM, 0.13 nM and under 0.01 nM, respectively.
For `CCCO[C@H](C[C@H](C(C)C)N(CCC)C(=O)[C@@H](NC(=O)[C@H](NC)[C@@H](C)CC)[C@@H](C)CC)c1nc(C(=O)N[C@@H](Cc2ccc(O)cc2)C[C@H](C)C(=O)O)cs1` [TAM610], the IC50 with BT474 amounted to 0.1 nM; in the assay on MDA-MB-468, 0.3 nM; in the assay on MCF7 it was 0.2 nM; in the assay on SK-N-MC, 0.1 nM.
In the case of `CCCO[C@H](C[C@H](C(C)C)N(CCC)C(=O)[C@@H](NC(=O)[C@H]1CCCCN1C)[C@@H](C)CC)c1nc(C(=O)N[C@@H](Cc2ccccc2)C[C@H](C)C(=O)NNC(=O)OCCOCCN)cs1` [TAM523], the concentration for half-maximal inhibition (IC50) is 65 nM in the assay on BT474, 221 nM with MDA-MB-468, 92.1 nM in the assay on MCF7 and 150 nM in the assay on SK-N-MC.
In assay [1], `CCCO[C@H](C[C@H](C(C)C)N(CCC)C(=O)[C@@H](NC(=O)[C@H]1CCCCN1C)[C@@H](C)CC)c1nc(C(=O)N[C@@H](Cc2ccc(O)cc2)C[C@H](C)C(=O)NCCOCCOCCOCCOCCOCCOCCN)cs1` [TAM597] displayed an IC50 of 0.172 nM. This lies in the sub-nanomolar range.
